Measurements taken from US10675360B2 (MADRIGAL PHARMACEUTICALS, INC., priority 2014, dated 2020).
Where two headings read alike, the source gives them in different places.

Tested on: H 3211 NSLC cells
Assay: IC50 of continuous and pulsed exposure to SDC-TRAPs
Assay type: cell-based
[1] = 1 h, read-out: IC50, 1 h-pulse/71 h-compound free, H 3211 NSLC cells, 7.5 × 10^3 cells/well, 1st of 2 columns
[2] = 1 h, read-out: IC50, 1 h-pulse/71 h-compound free, H 3211 NSLC cells, 7.5 × 10^3 cells/well, 2nd of 2 columns
[3] = 72 h, read-out: IC50, 72 h-continuous, H 3211 NSLC cells, 7.5 × 10^3 cells/well, 1st of 3 columns
[4] = 72 h, read-out: IC50, 72 h-continuous, H 3211 NSLC cells, 7.5 × 10^3 cells/well, 2nd of 3 columns
[5] = 72 h, read-out: IC50, 72 h-continuous, H 3211 NSLC cells, 7.5 × 10^3 cells/well, 3rd of 3 columns

SMILES | IC50 [1] [nM] | IC50 [2] [nM] | IC50 [3] [nM] | IC50 [4] [nM] | IC50 [5] [nM]
CC(C)c1cc(-c2nnc(O)n2-c2ccc3c(ccn3CCN(C)C(=O)c3ccc(CCc4c[nH]c5nc(N)[nH]c(=O)c45)cc3)c2)c(O)cc1O [SDC-TRAP-0019, 4-(2-(2-amino-4-oxo-4,7-dihydro-3H-pyrrolo[2,3-d]pyrimidin-5-yl)ethyl)-N-(2-(5-(3-(2,4-dihydroxy-5-isopropylphenyl)-5-hydroxy-4H-1,2,4-triazol-4-yl)-1H-indol-1-yl)ethyl)-N-methylbenzamide] | > 3000 | > 3000 | 209 | 713 | 258
CC(C)c1cc(-c2nnc(O)n2-c2ccc3c(ccn3CCOCCNC(=O)c3ccc(CCc4c[nH]c5nc(N)[nH]c(=O)c45)cc3)c2)c(O)cc1O [SDC-TRAP-0020, 4-(2-(2-amino-4-oxo-4,7-dihydro-3H-pyrrolo[2,3-d]pyrimidin-5-yl)ethyl)-N-(2-(2-(5-(3-(2,4-dihydroxy-5-isopropylphenyl)-5-hydroxy-4H-1,2,4-triazol-4-yl)-1H-indol-1-yl)ethoxy)ethyl)benzamide] | > 3000 | > 3000 | 587 | 2620 | 2010
CC(C)c1cc(-c2nnc(O)n2-c2ccc3c(ccn3CCN(C)C(=O)NCC(=O)Nc3cccc4c3CN(C3CCC(=O)NC3=O)C4=O)c2)c(O)cc1O (stereo not shown) [SDC-TRAP-0021, 2-(3-(2-(5-(3-(2,4-dihydroxy-5-isopropylphenyl)-5-hydroxy-4H-1,2,4-triazol-4-yl)-1H-indol-1-yl)ethyl)-3-methylureido)-N-(2-(2,6-dioxopiperidin-3-yl)-1-oxoisoindolin-4-yl)acetamide] | > 3000 | > 3000 | 431 | 817 | 902
CCc1c2c(nc3ccc(OCC(=O)NCCn4ccc5cc(-n6c(O)nnc6-c6cc(C(C)C)c(O)cc6O)ccc54)cc13)-c1cc3c(c(=O)n1C2)COC(=O)C3(O)CC (stereo not shown) [SDC-TRAP-0023, 2-((4,11-diethyl-4-hydroxy-3,14-dioxo-3,4,12,14-tetrahydro-1H-pyrano[3′,4′: 6,7]indolizino[1,2-b]quinolin-9-yl)oxy)-N-(2-(5-(3-(2,4-dihydroxy-5-isopropylphenyl)-5-hydroxy-4H-1,2,4-triazol-4-yl)-1H-indol-1-yl)ethyl)acetamide] | > 3000 | > 3000 | 59 | 239 | 113
CCc1c2c(nc3ccc(O)cc13)-c1cc3c(c(=O)n1C2)COC(=O)C3(CC)OC(=O)CCCNC(=O)c1cc2cc(-n3c(O)nnc3-c3cc(C(C)C)c(O)cc3O)ccc2n1C (stereo not shown) [SDC-TRAP-0024, 4,11-diethyl-9-hydroxy-3,14-dioxo-3,4,12,14-tetrahydro-1H-pyrano[3′,4′:6,7]indolizino[1,2-b]quinolin-4-yl 4-(5-(3-(2,4-dihydroxy-5-isopropylphenyl)-5-hydroxy-4H-1,2,4-triazol-4-yl)-1-methyl-1H-indole-2-carboxamido)butanoate] |  |  | 76 |  | 
CCc1c2c(nc3ccc(OCC(=O)N(C)CCn4ccc5cc(-n6c(O)nnc6-c6cc(C(C)C)c(O)cc6O)ccc54)cc13)-c1cc3c(c(=O)n1C2)COC(=O)C3(O)CC (stereo not shown) [SDC-TRAP-0027, 2-((4,11-diethyl-4-hydroxy-3,14-dioxo-3,4,12,14-tetrahydro-1H-pyrano[3′,4′:6,7]indolizino[1,2-b]quinolin-9-yl)oxy)-N-(2-(5-(3-(2,4-dihydroxy-5-isopropylphenyl)-5-hydroxy-4H-1,2,4-triazol-4-yl)-1H-indol-1-yl)ethyl)-N-methylacetamide] | > 3000 | > 3000 |  | 1740 | 1340
